Measurements as given in patent US10556878B2, “Thiourea compounds and their use as inhibitors of Sirt2 or Sirt5” (CORNELL UNIVERSITY, priority 2013, dated 2020).
One block for each compound: values may come before it.

Legend:
[1] = molecular target: T1, Sirt5 (Homo sapiens, UniProt Q9NXA8); experiment: sirtuin inhibition IC50, Sirt5-catalyzed desuccinylation; format: biochemical
T1 sequence (Q9NXA8 37-310): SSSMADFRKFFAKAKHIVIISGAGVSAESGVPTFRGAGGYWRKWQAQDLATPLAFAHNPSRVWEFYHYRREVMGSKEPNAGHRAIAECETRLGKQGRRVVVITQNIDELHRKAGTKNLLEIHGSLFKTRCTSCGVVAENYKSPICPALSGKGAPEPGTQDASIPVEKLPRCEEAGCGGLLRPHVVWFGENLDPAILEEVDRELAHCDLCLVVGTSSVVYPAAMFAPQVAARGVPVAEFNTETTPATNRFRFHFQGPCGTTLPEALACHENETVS

[2] = molecular target: T2, Sirt1 (Homo sapiens, UniProt Q96EB6); experiment: sirtuin inhibition IC50, Sirt1; format: biochemical; details: Table 1; NI = no inhibition at 256 μM
T2 sequence (Q96EB6 1-747): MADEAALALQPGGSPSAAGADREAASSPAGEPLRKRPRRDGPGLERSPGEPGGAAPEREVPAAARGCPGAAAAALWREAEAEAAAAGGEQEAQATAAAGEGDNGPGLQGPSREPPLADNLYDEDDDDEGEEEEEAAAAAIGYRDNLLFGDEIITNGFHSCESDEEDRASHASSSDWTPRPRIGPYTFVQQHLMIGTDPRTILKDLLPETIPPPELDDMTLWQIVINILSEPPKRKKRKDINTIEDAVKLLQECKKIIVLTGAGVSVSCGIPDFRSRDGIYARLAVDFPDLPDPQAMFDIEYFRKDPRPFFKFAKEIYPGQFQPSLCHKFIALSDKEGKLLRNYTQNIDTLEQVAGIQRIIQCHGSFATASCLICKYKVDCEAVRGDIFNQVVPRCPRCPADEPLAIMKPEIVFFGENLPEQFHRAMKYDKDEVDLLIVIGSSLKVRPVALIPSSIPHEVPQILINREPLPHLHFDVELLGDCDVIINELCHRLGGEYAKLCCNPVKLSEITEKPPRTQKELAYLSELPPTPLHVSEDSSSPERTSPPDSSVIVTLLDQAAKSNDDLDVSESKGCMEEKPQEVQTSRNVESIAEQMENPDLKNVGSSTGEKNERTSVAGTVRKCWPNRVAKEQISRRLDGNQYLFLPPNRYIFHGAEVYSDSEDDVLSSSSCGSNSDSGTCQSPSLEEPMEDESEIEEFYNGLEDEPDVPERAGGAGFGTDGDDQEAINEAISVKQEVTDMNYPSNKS

[3] = molecular target: T3, Sirt2 (Homo sapiens, UniProt Q8IXJ6); experiment: sirtuin inhibition IC50, Sirt2; format: biochemical
T3 sequence (Q8IXJ6 1-389): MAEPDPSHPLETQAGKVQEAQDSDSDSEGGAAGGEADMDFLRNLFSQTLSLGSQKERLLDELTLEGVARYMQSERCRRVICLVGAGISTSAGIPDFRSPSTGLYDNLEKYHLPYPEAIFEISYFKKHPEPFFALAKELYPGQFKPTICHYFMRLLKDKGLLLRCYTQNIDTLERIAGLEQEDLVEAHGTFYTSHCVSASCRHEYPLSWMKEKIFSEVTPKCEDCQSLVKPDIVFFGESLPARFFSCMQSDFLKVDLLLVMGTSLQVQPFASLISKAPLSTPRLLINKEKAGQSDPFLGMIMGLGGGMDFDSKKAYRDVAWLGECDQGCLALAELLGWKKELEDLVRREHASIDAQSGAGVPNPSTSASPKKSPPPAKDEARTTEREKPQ

[4] = molecular target: T4, Sirt3 (Homo sapiens, UniProt Q9NTG7); experiment: sirtuin inhibition IC50, Sirt3; format: biochemical; details: Table 1; NI = no inhibition at 256 μM
T4 sequence (Q9NTG7 1-399): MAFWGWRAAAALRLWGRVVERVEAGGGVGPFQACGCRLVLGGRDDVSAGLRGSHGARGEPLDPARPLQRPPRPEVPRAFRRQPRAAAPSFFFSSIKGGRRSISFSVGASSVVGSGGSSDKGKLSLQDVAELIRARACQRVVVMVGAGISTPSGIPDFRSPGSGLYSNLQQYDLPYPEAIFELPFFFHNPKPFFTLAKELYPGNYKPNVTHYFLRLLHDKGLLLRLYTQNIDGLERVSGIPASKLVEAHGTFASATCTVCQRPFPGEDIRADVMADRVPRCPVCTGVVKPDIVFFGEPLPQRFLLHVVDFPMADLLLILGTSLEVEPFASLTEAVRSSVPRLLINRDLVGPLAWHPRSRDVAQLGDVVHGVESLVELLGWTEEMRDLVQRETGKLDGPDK

[5] = molecular target: T1, Sirt5; experiment: LC-MS analysis of reaction mixture with Sirt5 and NAD (mechanism-based inhibition); format: biochemical; details: LC / MS detection
Protocol: To further confirm that the thiourea compound 5 is a mechanism-based inhibitor, the reaction mixture was analyzed by liquid chromatography-mass spectrometry (LC-MS). An ion with m/z of 1028.17 (corresponding to Compound 7a or protonated Compound 7b or 7c) was detected only when Compound 5 was incubated with both Sirt5 and NAD for 15 minutes, but not in negative controls without Sirt5 or NAD. In addition to Compound 7a or protonated Compound 7b or 7c, two new ions with m/z of 356.33 (corresponding to Compound 1) and 471.42 (corresponding to Compound 10) were also observed when Compound 5 was incubated with both Sirt5 and NAD, but not in negative controls without Sirt5 or NAD. Both Compounds 1 and 10 can be derived from the regular Sirt5-catalyzed deacylation reaction of Compound 7a (herein denoted as pathway A, as discussed in A. A. Sauve, et al., Annu. Rev. Biochem., 75, 435-465, 2006) or by an alternative hydrolysis pathway of 7a that is different from the regular sirtuin-catalyzed deacylation pathway (herein denoted as pathway B). […]
The foregoing results are likely responsible for Compound 3b being a less capable inhibitor of Sirt5 compared to Compound 5. […] The decomposition of the covalent intermediate occurs mainly through the Sirt5-catalyzed deacylation pathway A as the major product detected is Compound 1 with an m/z of 356.33.
The intermediate (7a/7b/7c) is readily detected by LC. […]

[6] = tested on: HeLa cell lines; experiment: protein succinylation Western blot in HeLa cells; format: cell-based; details: 100 μM, 24 and 48 hours
Protocol: FIGS. 3A and 3B show the results of treatment of HeLa cell lines with 100 μM YC6-18e at time points of 24 and 48 hours, and FIG. 3C is the structure of YC6-18e. […] The results reveal that treatment with Compound YC6-18e can increase protein lysine succinylation. It was observed that the loading is lower for 48 hours but the succinylation intensity is slightly higher.

[7] = tested on: MCF-7; experiment: inhibition of MCF-7 cancer cells, crystal violet staining after 10 days; format: cell-based, human; details: 25, 50, 75, 100 μM
Protocol: 15,000 cells were seeded in each well and treated with 25, 50, 75, and 100 μM YC6-18 and YC6-18e. Media with the inhibitor/DMSO was changed every three days. Cells were stained with crystal violet after growing for 10 days. The results are shown in FIG. 5A (for YC-6-18) and FIG. 5B (for YC-6-18e).

[8] = tested on: MDA-MB-231; experiment: foci formation, MDA-MB-231; format: cell-based, human; details: tested at 10, 25, 50, 100 μM
Protocol: (§1) Each cancer cell line was assayed under the following six conditions: (1) untreated, (2) DMSO, (3) 15-2e at 10 μM, (4) 15-2e at 25 μM, (5) 15-2e at 50 μM, and (6) 15-2e at 100 μM.

[9] = tested on: MDA-MB-468; experiment: foci formation, MDA-MB-468; format: cell-based, human; details: tested at 10, 25, 50, 100 μM
Protocol: as §1

[10] = tested on: MCF-7 cells; experiment: foci formation, MCF-7; format: cell-based, human; details: tested at 10, 25, 50, 100 μM
Protocol: as §1

[11] = Table 1, NI = no inhibition at 256 μM

- IC50 ([1]; Table 2, NI = no inhibition): 3.28 µM
SMILES: O=C(O)CCNC(=S)NCCCCC(NC(=O)OCc1ccccc1)C(=O)Nc1ccc(O)cc1 (stereo not shown) [YC6-04]

- IC50 [2]: 64 µM
- IC50 [3, 11]: 0.2 µM
- IC50 [1, 11]: > 256 µM
SMILES: CCCCCCCNC(=S)NCCCCC(NC(=O)OCc1ccccc1)C(=O)Nc1ccccc1 (stereo not shown) [Compound 6]

- IC50 ([1]; Table 2, NI = no inhibition): 13.6 µM
SMILES: CC(=O)NC(CCCCNC(=S)NCCC(=O)O)C(=O)Nc1cccc(O)c1 (stereo not shown) [YC6-17]

- IC50 [2]: > 256 µM
- IC50 [3, 11]: > 256 µM
- IC50 [4]: > 256 µM
- IC50 [1, 11]: > 500 µM
- inhibition at 500 µM ([1]; at 500 μM): 20%
SMILES: O=C(O)CCC(=S)NCCCCC(NC(=O)OCc1ccccc1)C(=O)Nc1ccccc1 (stereo not shown) [Compound 3a, reference compound]

- IC50 ([1]; Table 2, NI = no inhibition): 1.91 µM
SMILES: O=C(O)CCNC(=S)NCCCCC(NC(=O)OCc1ccccc1)C(=O)Nc1ccccc1O (stereo not shown) [YC6-07]

- IC50 [2]: > 256 µM
- IC50 [3, 11]: > 256 µM
- IC50 [4]: > 256 µM
- IC50 [1, 11]: 43 µM
- covalent intermediate with NAD in the presence of Sirt5 [5]: hardly detectable by LC
SMILES: O=C(O)CCCC(=S)NCCCC[C@H](NC(=O)OCc1ccccc1)C(=O)Nc1ccccc1 [Compound 3b]

SMILES: CCOC(=O)CCNC(=S)NCCCCC(NC(=O)OCc1ccccc1)C(=O)NC1CCSc2ccccc21 (stereo not shown) [YC6-18e]
- IC50 ([3]; Table 2, NI = no inhibition): 3.92 µM
- IC50 ([1]; Table 2, NI = no inhibition): > 167 µM
- succinylation level on proteins [6]: increased the succinylation level on proteins at 24 and 48 hours
- killing of MCF-7 cells [7]: very effective in killing MCF-7 at 25 μM concentration

SMILES: CCOC(=O)CCNC(=S)NCCCCC(NC(=O)OCc1ccccc1)C(=O)Nc1cccc(O)c1 (stereo not shown) [Compound I5-2e]
- IC50 ([3]; Table 2, NI = no inhibition): 7.05 µM
- IC50 ([1]; Table 2, NI = no inhibition): > 200 µM
- inhibition at 200 µM ([1]; Table 2, at 200 μM (footnote 3), read-out: inhibition of SIRT5 (in brackets under IC50)): 30%
- concentration from which foci formation is inhibited [8]: about 25 μM
- concentration from which foci formation is inhibited [9]: about 25 μM
- concentration from which foci formation is inhibited [10]: about 25 μM

- IC50 ([1]; Table 2, NI = no inhibition): 3.05 µM
SMILES: NS(=O)(=O)c1cc(C(=O)NC(CCCCNC(=S)NCCC(=O)O)C(=O)Nc2cccc(O)c2)ccc1Cl (stereo not shown) [YC6-14]

- IC50 ([1]; Table 2, NI = no inhibition): 0.89 µM
SMILES: O=C(O)CCNC(=S)NCCCCC(NC(=O)OCc1ccccc1)C(=O)Nc1cccc(O)c1 (stereo not shown) [Compound I5-2]

- IC50 ([1]; Table 2, NI = no inhibition): 4.37 µM
SMILES: CC(C)(C)OC(=O)NC(CCCCNC(=S)NCCC(=O)O)C(=O)Nc1cccc(O)c1 (stereo not shown) [YC6-09]

- IC50 ([1]; Table 2, NI = no inhibition): 0.45 µM
SMILES: O=C(O)CCNC(=S)NCCCCC(NC(=O)OCc1ccccc1)C(=O)NC1CCSc2ccccc21 (stereo not shown) [YC6-18]
- killing of MCF-7 cells [7]: almost no effect
